This assay deals with T1, IL-1β (Homo sapiens, UniProt P01584).
T1 construct: purchased BioLegend 579404
Nature of the assay: IL-6 assay in MRC5 cells: inhibition of IL-1β induced IL-6 secretion (AlphaLISA). The conditions noted are these: inhibition of IL-1β induced IL-6 secretion in MRC5 cells; read-out: MRC5 IC50. It counts as cell-based. Put shortly: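 Compound was pre-incubated 1 h at ambient temperature with recombinant human IL-1β at 2λ EC80 before adding human lung fibroblast MRC5 cells (3000/well) in EMEM with 0.025% BSA. After overnight culture at 37 °C, 5% CO2, secreted IL-6 in conditioned medium was measured by AlphaLISA; IC50 from 4-parameter logistic fits.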
In general terms: In Alpha technology, singlet oxygen from a donor bead excites a nearby acceptor bead.

Here are results for twelve compounds from patent US20260242419A1, “A CYCLIC PEPTIDE FOR TRAPPING INTERLEUKIN-1 BETA” (Merck Sharp & Dohme LLC, priority 2023, published 2026).

Usually pIC50 stands for the negative decadic logarithm of the IC50, by convention in mol/L.

SMILES strings stand for the structures. pIC50: −log10 of the molar value. Starred links: 1 amine or outer side, 2 acyl side, 3 side chain; linkers in the order of their positions; H or OH if unused. Non-standard residues stand in square brackets, D forms with d. Residues, ends and D or L forms follow the SMILES beside them. dPro(4R-(4-pyridylmethyl)) = O=C(O)[C@H]1C[C@@H](Cc2ccncc2)CN1; Ala(piperidin-4-yl) = O=C([C@H](CC1CCN([*:3])CC1)N[*:1])[*:2]; Trp(βS-Me,4-F) = C[C@@H](c1c[nH]c2cccc(F)c12)[C@H](N)C(=O)O; Bip(4'-COOH) = N[C@@H](Cc1ccc(-c2ccc(C(=O)O)cc2)cc1)C(=O)O; Ala(1-bicyclo(1.1.1)pentyl) = N[C@@H](CC12CC(C1)C2)C(=O)O; dPro(4R-Bzl(4-F)) = O=C(O)[C@H]1C[C@@H](Cc2ccc(F)cc2)CN1; Ala(morpholin-4-yl) = N[C@@H](CN1CCOCC1)C(=O)O; Ala(piperazin-1-yl) = N[C@@H](CN1CCNCC1)C(=O)O; Phe(4-COOH) = N[C@@H](Cc1ccc(C(=O)O)cc1)C(=O)O; Pro(cis-4-F) = O=C(O)[C@@H]1C[C@H](F)CN1; d(αMeS) = C[C@@](N)(CO)C(=O)O; αMeK = C[C@](N)(CCCCN)C(=O)O; Dab = NCC[C@H](N)C(=O)O; Aib = CC(C)(N)C(=O)O

T1 sequence (P01584 117-269): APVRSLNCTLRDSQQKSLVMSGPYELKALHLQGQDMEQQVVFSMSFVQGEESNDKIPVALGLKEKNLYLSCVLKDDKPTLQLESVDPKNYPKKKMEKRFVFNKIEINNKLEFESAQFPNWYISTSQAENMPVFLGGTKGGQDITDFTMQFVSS

On to `C[C@@H](c1c[nH]c2cccc(F)c12)[C@@H]1NC(=O)[C@@H]2C[C@H](F)CN2C(=O)CNC(=O)[C@H](Cc2ccc(C(=O)O)cc2)NC(=O)[C@H](CC23CC(C2)C3)NC(=O)[C@H](Cc2ccc(-c3ccc(C(=O)O)cc3)cc2)NC(=O)[C@H]2C[C@@H](Cc3ccc(F)cc3)CN2C(=O)CNC(=O)[C@H](CCN)NC(=O)[C@H](CCC(N)=O)NC(=O)[C@H](CC2CCNCC2)NC(=O)C(C)(C)NC(=O)[C@H](Cc2c[nH]c3ccccc23)NC(=O)[C@H](CO)NC(=O)C(C)(C)NC1=O` [Example 169] (cyclo([Bip(4'-COOH)][Ala(1-bicyclo(1.1.1)pentyl)][Phe(4-COOH)]G[Pro(cis-4-F)][Trp(βS-Me,4-F)][Aib]SW[Aib][Ala(piperidin-4-yl)]Q[Dab]G[dPro(4R-Bzl(4-F))])), for which the pIC50 is 10.72.
For `C[C@@H](c1c[nH]c2cccc(F)c12)[C@@H]1NC(=O)[C@@H]2C[C@H](F)CN2C(=O)CNC(=O)[C@H](Cc2ccc(C(=O)O)cc2)NC(=O)[C@H](CC23CC(C2)C3)NC(=O)[C@H](Cc2ccc(-c3ccc(C(=O)O)cc3)cc2)NC(=O)[C@H]2C[C@@H](Cc3ccc(F)cc3)CN2C(=O)CNC(=O)[C@H](CCN)NC(=O)[C@H](CCC(N)=O)NC(=O)[C@H](CN2CCOCC2)NC(=O)[C@@](C)(CO)NC(=O)[C@H](Cc2c[nH]c3ccccc23)NC(=O)[C@H](CO)NC(=O)C(C)(C)NC1=O` [Example 170] (cyclo([Bip(4'-COOH)][Ala(1-bicyclo(1.1.1)pentyl)][Phe(4-COOH)]G[Pro(cis-4-F)][Trp(βS-Me,4-F)][Aib]SW[d(αMeS)][Ala(morpholin-4-yl)]Q[Dab]G[dPro(4R-Bzl(4-F))])), the pIC50 was 10.82.
With `C[C@@H](c1c[nH]c2cccc(F)c12)[C@@H]1NC(=O)[C@@H]2C[C@H](F)CN2C(=O)CNC(=O)[C@H](Cc2ccc(C(=O)O)cc2)NC(=O)[C@H](CC23CC(C2)C3)NC(=O)[C@H](Cc2ccc(-c3ccc(C(=O)O)cc3)cc2)NC(=O)[C@H]2C[C@@H](Cc3ccc(F)cc3)CN2C(=O)CNC(=O)[C@H](CCN)NC(=O)[C@H](CCC(N)=O)NC(=O)[C@H](CN2CCNCC2)NC(=O)[C@@](C)(CO)NC(=O)[C@H](Cc2c[nH]c3ccccc23)NC(=O)[C@H](CO)NC(=O)C(C)(C)NC1=O` [Example 171] (cyclo([Bip(4'-COOH)][Ala(1-bicyclo(1.1.1)pentyl)][Phe(4-COOH)]G[Pro(cis-4-F)][Trp(βS-Me,4-F)][Aib]SW[d(αMeS)][Ala(piperazin-1-yl)]Q[Dab]G[dPro(4R-Bzl(4-F))])) the figure was 10.80.
In the case of `C[C@@H](c1c[nH]c2cccc(F)c12)[C@@H]1NC(=O)[C@@H]2C[C@H](F)CN2C(=O)CNC(=O)[C@H](Cc2ccc(C(=O)O)cc2)NC(=O)[C@H](CC23CC(C2)C3)NC(=O)[C@H](Cc2ccc(-c3ccc(C(=O)O)cc3)cc2)NC(=O)[C@H]2C[C@@H](Cc3ccc(F)cc3)CN2C(=O)CNC(=O)[C@H](CCN)NC(=O)[C@H](CCC(N)=O)NC(=O)[C@H](CC2CCNCC2)NC(=O)[C@@](C)(CO)NC(=O)[C@H](Cc2c[nH]c3ccccc23)NC(=O)[C@H](CO)NC(=O)C(C)(C)NC1=O` [Example 172] (cyclo([Bip(4'-COOH)][Ala(1-bicyclo(1.1.1)pentyl)][Phe(4-COOH)]G[Pro(cis-4-F)][Trp(βS-Me,4-F)][Aib]SW[d(αMeS)][Ala(piperidin-4-yl)]Q[Dab]G[dPro(4R-Bzl(4-F))])), the negative-log IC50 (pIC50) was 10.80.
Consider `C[C@@H](c1c[nH]c2cccc(F)c12)[C@@H]1NC(=O)[C@@H]2C[C@H](F)CN2C(=O)CNC(=O)[C@H](Cc2ccc(C(=O)O)cc2)NC(=O)[C@H](CC23CC(C2)C3)NC(=O)[C@H](Cc2ccc(-c3ccc(C(=O)O)cc3)cc2)NC(=O)[C@H]2C[C@@H](Cc3ccc(F)cc3)CN2C(=O)CNC(=O)[C@H](CO)NC(=O)[C@H](CCC(N)=O)NC(=O)[C@H](CN2CCOCC2)NC(=O)[C@](C)(CCCCN)NC(=O)[C@H](Cc2c[nH]c3ccccc23)NC(=O)[C@H](CO)NC(=O)C(C)(C)NC1=O` [Example 173] (cyclo([Bip(4'-COOH)][Ala(1-bicyclo(1.1.1)pentyl)][Phe(4-COOH)]G[Pro(cis-4-F)][Trp(βS-Me,4-F)][Aib]SW[αMeK][Ala(morpholin-4-yl)]QSG[dPro(4R-Bzl(4-F))])), for which the pIC50 is 10.43.
With `C[C@@H](c1c[nH]c2cccc(F)c12)[C@@H]1NC(=O)[C@@H]2C[C@H](F)CN2C(=O)CNC(=O)[C@H](Cc2ccc(C(=O)O)cc2)NC(=O)[C@H](CC23CC(C2)C3)NC(=O)[C@H](Cc2ccc(-c3ccc(C(=O)O)cc3)cc2)NC(=O)[C@H]2C[C@@H](Cc3ccc(F)cc3)CN2C(=O)CNC(=O)[C@H](CCN)NC(=O)[C@H](CCC(N)=O)NC(=O)[C@H](CN2CCOCC2)NC(=O)[C@](C)(CCCCN)NC(=O)[C@H](Cc2c[nH]c3ccccc23)NC(=O)[C@H](CO)NC(=O)C(C)(C)NC1=O` [Example 174] (cyclo([Bip(4'-COOH)][Ala(1-bicyclo(1.1.1)pentyl)][Phe(4-COOH)]G[Pro(cis-4-F)][Trp(βS-Me,4-F)][Aib]SW[αMeK][Ala(morpholin-4-yl)]Q[Dab]G[dPro(4R-Bzl(4-F))])), the negative-log IC50 (pIC50) was 10.60.
For `C[C@@H](c1c[nH]c2cccc(F)c12)[C@@H]1NC(=O)[C@@H]2C[C@H](F)CN2C(=O)CNC(=O)[C@H](Cc2ccc(C(=O)O)cc2)NC(=O)[C@H](CC23CC(C2)C3)NC(=O)[C@H](Cc2ccc(-c3ccc(C(=O)O)cc3)cc2)NC(=O)[C@H]2C[C@@H](Cc3ccc(F)cc3)CN2C(=O)CNC(=O)[C@H](CO)NC(=O)[C@H](CCC(N)=O)NC(=O)[C@H](CN2CCNCC2)NC(=O)[C@](C)(CCCCN)NC(=O)[C@H](Cc2c[nH]c3ccccc23)NC(=O)[C@H](CO)NC(=O)C(C)(C)NC1=O` [Example 175] (cyclo([Bip(4'-COOH)][Ala(1-bicyclo(1.1.1)pentyl)][Phe(4-COOH)]G[Pro(cis-4-F)][Trp(βS-Me,4-F)][Aib]SW[αMeK][Ala(piperazin-1-yl)]QSG[dPro(4R-Bzl(4-F))])), the pIC50 was 10.43.
With `C[C@@H](c1c[nH]c2cccc(F)c12)[C@@H]1NC(=O)[C@@H]2C[C@H](F)CN2C(=O)CNC(=O)[C@H](Cc2ccc(C(=O)O)cc2)NC(=O)[C@H](CC23CC(C2)C3)NC(=O)[C@H](Cc2ccc(-c3ccc(C(=O)O)cc3)cc2)NC(=O)[C@H]2C[C@@H](Cc3ccncc3)CN2C(=O)CNC(=O)[C@H](CO)NC(=O)[C@H](CCC(N)=O)NC(=O)[C@H](CC2CCNCC2)NC(=O)C(C)(C)NC(=O)[C@H](Cc2c[nH]c3ccccc23)NC(=O)[C@H](CCC(=O)O)NC(=O)C(C)(C)NC1=O` [Example 176] (cyclo([Bip(4'-COOH)][Ala(1-bicyclo(1.1.1)pentyl)][Phe(4-COOH)]G[Pro(cis-4-F)][Trp(βS-Me,4-F)][Aib]EW[Aib][Ala(piperidin-4-yl)]QSG[dPro(4R-(4-pyridylmethyl))])) the figure was 10.44; with `C[C@@H](c1c[nH]c2cccc(F)c12)[C@@H]1NC(=O)[C@@H]2C[C@H](F)CN2C(=O)CNC(=O)[C@H](Cc2ccc(C(=O)O)cc2)NC(=O)[C@H](CC23CC(C2)C3)NC(=O)[C@H](Cc2ccc(-c3ccc(C(=O)O)cc3)cc2)NC(=O)[C@H]2C[C@@H](Cc3ccncc3)CN2C(=O)CNC(=O)[C@H](CO)NC(=O)[C@H](CCC(N)=O)NC(=O)[C@H](CN2CCOCC2)NC(=O)[C@@](C)(CO)NC(=O)[C@H](Cc2c[nH]c3ccccc23)NC(=O)[C@H](CCC(=O)O)NC(=O)C(C)(C)NC1=O` [Example 177] (cyclo([Bip(4'-COOH)][Ala(1-bicyclo(1.1.1)pentyl)][Phe(4-COOH)]G[Pro(cis-4-F)][Trp(βS-Me,4-F)][Aib]EW[d(αMeS)][Ala(morpholin-4-yl)]QSG[dPro(4R-(4-pyridylmethyl))])), 10.51.
`C[C@@H](c1c[nH]c2cccc(F)c12)[C@@H]1NC(=O)[C@@H]2C[C@H](F)CN2C(=O)CNC(=O)[C@H](Cc2ccc(C(=O)O)cc2)NC(=O)[C@H](CC23CC(C2)C3)NC(=O)[C@H](Cc2ccc(-c3ccc(C(=O)O)cc3)cc2)NC(=O)[C@H]2C[C@@H](Cc3ccncc3)CN2C(=O)CNC(=O)[C@H](CO)NC(=O)[C@H](CCC(N)=O)NC(=O)[C@H](CC2CCNCC2)NC(=O)[C@@](C)(CO)NC(=O)[C@H](Cc2c[nH]c3ccccc23)NC(=O)[C@H](CCC(=O)O)NC(=O)C(C)(C)NC1=O` [Example 178] (cyclo([Bip(4'-COOH)][Ala(1-bicyclo(1.1.1)pentyl)][Phe(4-COOH)]G[Pro(cis-4-F)][Trp(βS-Me,4-F)][Aib]EW[d(αMeS)][Ala(piperidin-4-yl)]QSG[dPro(4R-(4-pyridylmethyl))])): the negative-log IC50 (pIC50) was 10.39.
The same measure for `C[C@@H](c1c[nH]c2cccc(F)c12)[C@@H]1NC(=O)[C@@H]2C[C@H](F)CN2C(=O)CNC(=O)[C@H](Cc2ccc(C(=O)O)cc2)NC(=O)[C@H](CC23CC(C2)C3)NC(=O)[C@H](Cc2ccc(-c3ccc(C(=O)O)cc3)cc2)NC(=O)[C@H]2C[C@@H](Cc3ccncc3)CN2C(=O)CNC(=O)[C@H](CO)NC(=O)[C@H](CCC(N)=O)NC(=O)[C@H](CN2CCOCC2)NC(=O)C(C)(C)NC(=O)[C@H](Cc2c[nH]c3ccccc23)NC(=O)[C@H](CO)NC(=O)C(C)(C)NC1=O` [Example 179] (cyclo([Bip(4'-COOH)][Ala(1-bicyclo(1.1.1)pentyl)][Phe(4-COOH)]G[Pro(cis-4-F)][Trp(βS-Me,4-F)][Aib]SW[Aib][Ala(morpholin-4-yl)]QSG[dPro(4R-(4-pyridylmethyl))])): 10.54; for `C[C@@H](c1c[nH]c2cccc(F)c12)[C@@H]1NC(=O)[C@@H]2C[C@H](F)CN2C(=O)CNC(=O)[C@H](Cc2ccc(C(=O)O)cc2)NC(=O)[C@H](CC23CC(C2)C3)NC(=O)[C@H](Cc2ccc(-c3ccc(C(=O)O)cc3)cc2)NC(=O)[C@H]2C[C@@H](Cc3ccncc3)CN2C(=O)CNC(=O)[C@H](CO)NC(=O)[C@H](CCC(N)=O)NC(=O)[C@H](CC2CCNCC2)NC(=O)C(C)(C)NC(=O)[C@H](Cc2c[nH]c3ccccc23)NC(=O)[C@H](CO)NC(=O)C(C)(C)NC1=O` [Example 180] (cyclo([Bip(4'-COOH)][Ala(1-bicyclo(1.1.1)pentyl)][Phe(4-COOH)]G[Pro(cis-4-F)][Trp(βS-Me,4-F)][Aib]SW[Aib][Ala(piperidin-4-yl)]QSG[dPro(4R-(4-pyridylmethyl))])): 10.57.
